Where a name gives a salt, the structure may show the parent alone. ± gives the standard deviation of the averaged measurements.
Tested on: HepaRG
Experiment: LDH release cytotoxicity, % of total lysis control; higher = more cytotoxic
Conditions: 48 h
Procedure, shortened: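 Duplicate wells of single-lot HepaRG cells, grown on collagen I-coated 96-well plates, received eight-point half-log series of test chemicals with 100 µM as the top concentration. Exposure lasted 48 h in serum-free induction medium with 0.5% DMSO, while total lysis wells received 0.1% Triton X. Resorufin fluorescence (CytoTox-ONE, Tecan Safire) was used to quantify LDH leaked into 50 µL of spent medium. Values for percent cytotoxicity were normalized to on-plate vehicle and total lysis controls and averaged across the duplicates.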

CN(C)c1ccc(N=NS(=O)(=O)O)cc1 [Fenaminosulf]
Conditions	LDH release cytotoxicity [%]
0.03162 µM	-1.38 ± 0.17
0.1 µM	-1.18 ± 1.2
0.3162278 µM	-1.97 ± 0.02
1 µM	-2.42 ± 0.11
3.16228 µM	-2.64 ± 0.11
10 µM	-3.4 ± 0.27
31.6228 µM	-3.39 ± 0.36
100 µM	-3.64 ± 0.36

CC(C)(OO)c1ccccc1 [Cumene hydroperoxide]
Conditions	LDH release cytotoxicity [%]
0.03162 µM	-1.39 ± 0.22
0.1 µM	0.0774 ± 0.7
0.3162278 µM	-0.106 ± 0.65
1 µM	-0.2 ± 0.59
3.16228 µM	0.797 ± 0.57
10 µM	0.939 ± 1.3
31.6228 µM	0.476 ± 0.51
100 µM	1.68 ± 0.062

Oc1cc(Cl)c(Cl)cc1Cl [2,4,5-Trichlorophenol]
Conditions	LDH release cytotoxicity [%]
0.03162 µM	-1.03 ± 1.1
0.1 µM	-1.29 ± 0.21
0.3162278 µM	-1.7 ± 1.3
1 µM	-1.77 ± 0.63
3.16228 µM	-1.83 ± 0.36
10 µM	-1.75 ± 0.2
31.6228 µM	-1.87 ± 1.3
100 µM	-0.358 ± 0.97

CC(C)CCCCCCCOC(=O)CCCCC(=O)OCCCCCCCC(C)C [Diisodecyl hexanedioate]
Conditions	LDH release cytotoxicity [%]
0.03162 µM	-0.938 ± 0.57
0.1 µM	-1.86 ± 0.81
0.3162278 µM	-1.91 ± 0.57
1 µM	-1.58 ± 0.48
3.16228 µM	-1.63 ± 0.72
10 µM	-1.13 ± 0.48
31.6228 µM	-0.135 ± 0.66
100 µM	0.966 ± 0.73

O=C(CCCCCCCCc1cccnc1)N1CCC(C=C(c2ccccc2)c2ccccc2)CC1 [Ro 23-7637]
Conditions	LDH release cytotoxicity [%]
0.03162 µM	0.3 ± 0.18
0.1 µM	-1.044 ± 0.0079
0.3162278 µM	-0.912 ± 1.2
1 µM	-1.28 ± 0.79
3.16228 µM	-1.65 ± 0.1
10 µM	-1.03 ± 0.15
31.6228 µM	11.7 ± 0.14
100 µM	63.3 ± 1.2

CNC(=O)Oc1ccccc1OC(C)C [Propoxur]
Conditions	LDH release cytotoxicity [%]
0.03162 µM	-0.314 ± 0.63
0.1 µM	-0.642 ± 0.96
0.3162278 µM	0.0787 ± 1.4
1 µM	-0.886 ± 0.72
3.16228 µM	0.431 ± 0.29
10 µM	-0.355 ± 1.1
31.6228 µM	-0.0411 ± 0.99
100 µM	2.29 ± 1.8

COc1ccc(S(=O)(=O)N2C(=O)C(c3ccccc3OC)(N3CC(O)CC3C(=O)N(C)C)c3cc(Cl)ccc32)c(OC)c1 (configuration not stated) [Nelivaptan]
Conditions	LDH release cytotoxicity [%]
0.03162 µM	-0.817 ± 0.14
0.1 µM	0.214 ± 1.6
0.3162278 µM	0.146 ± 0.67
1 µM	-0.447 ± 0.43
3.16228 µM	-0.164 ± 0.61
10 µM	0.998 ± 1.2
31.6228 µM	-0.141 ± 0.64
100 µM	-0.056 ± 0.061

ClC1=C(Cl)C2(Cl)C3C(Cl)C=CC3C1(Cl)C2(Cl)Cl (configuration not stated) [Heptachlor]
Conditions	LDH release cytotoxicity [%]
0.031623 µM	0.0329 ± 0.088
0.1 µM	-3.41 ± 1.6
0.316228 µM	-2.78 ± 0.4
1 µM	-2.89 ± 2.9
3.16228 µM	-2.85 ± 1.9
10 µM	-1.78 ± 2.6
31.6228 µM	-1.45 ± 2.4
100 µM	-0.326 ± 1.3

CCOCCOCCOCCO [2-[2-(2-Ethoxyethoxy)ethoxy]ethanol]
Conditions	LDH release cytotoxicity [%]
0.03162 µM	-2.06 ± 0.3
0.1 µM	-1.83 ± 0.41
0.3162278 µM	-2.87 ± 0.13
1 µM	-2.53 ± 0.46
3.16228 µM	-2.5 ± 0.72
10 µM	-1.81 ± 0.26
31.6228 µM	-1.33 ± 0.37
100 µM	0.397 ± 0.68

CCCCN1C(=O)C(C(O)C2CCCCC2)NC(=O)C12CCN(Cc1ccc(Oc3ccc(C(=O)O)cc3)cc1)CC2 (configuration not stated) [Aplaviroc hydrochloride]
Conditions	LDH release cytotoxicity [%]
0.03162 µM	-1.85 ± 0.7
0.1 µM	-1.71 ± 0.38
0.3162278 µM	-3.23 ± 0.59
1 µM	-2.439 ± 0.0083
3.16228 µM	-3.02 ± 0.42
10 µM	0.0163 ± 0.13
31.6228 µM	7.4 ± 0.52
100 µM	27.4 ± 2.6

CC(=O)OC1(C(C)=O)CCC2C3C=C(Cl)C4=CC(=O)C5CC5C4(C)C3CCC21C (configuration not stated) [Cyproterone acetate]
Conditions	LDH release cytotoxicity [%]
0.03162 µM	-0.255 ± 0.092
0.1 µM	-1.64 ± 0.93
0.3162278 µM	-0.773 ± 0.19
1 µM	-0.77 ± 0.3
3.16228 µM	-0.346 ± 0.2
10 µM	0.58 ± 0.28
31.6228 µM	10.4 ± 0.73
100 µM	46.5 ± 1.5

CCCC(=NOCC)C1C(=O)CC(CC(C)SCC)CC1=O (configuration not stated) [Sethoxydim]
Conditions	LDH release cytotoxicity [%]
0.0317809 µM	-1.15 ± 0.24
0.1005 µM	-1.26 ± 0.2
0.317809 µM	-1.36 ± 1.4
1.005 µM	-1.93 ± 0.12
3.17809 µM	-1.21 ± 0.21
10.05 µM	-0.579 ± 0.73
31.7809 µM	-0.893 ± 0.41
100.5 µM	0.566 ± 0.081

Nc1nc(Cl)nc2c1ncn2C1CC(O)C(CO)O1 (configuration not stated) [Cladribine]
Conditions	LDH release cytotoxicity [%]
0.03162 µM	1.26 ± 0.91
0.1 µM	0.387 ± 1.1
0.3162278 µM	1.42 ± 0.94
1 µM	1.39 ± 0.35
3.16228 µM	3.14 ± 0.5
10 µM	7.59 ± 0.6
31.6228 µM	10.9 ± 2
100 µM	13.4 ± 1

Cc1cc(N=Nc2ccccc2C)ccc1N [o-Aminoazotoluene]
Conditions	LDH release cytotoxicity [%]
0.03162 µM	1.25 ± 0.25
0.1 µM	0.0136 ± 0.85
0.3162278 µM	-0.529 ± 0.91
1 µM	-1.5 ± 0.26
3.16228 µM	0.597 ± 1.2
10 µM	-0.361 ± 0.022
31.6228 µM	-0.392 ± 0.21
100 µM	1.11 ± 0.27

CCCCCCCCCCCCO [1-Dodecanol]
Conditions	LDH release cytotoxicity [%]
0.031623 µM	-3.98 ± 0.71
0.1 µM	-0.16 ± 8
0.316228 µM	-2.69 ± 2.2
1 µM	-2.62 ± 3.8
3.16228 µM	-2.27 ± 3.2
10 µM	-0.892 ± 4.2
31.6228 µM	-1.67 ± 1
100 µM	-0.399 ± 1.2

CC(=O)N1CCN(c2ccc(OCC3COC(Cn4ccnc4)(c4ccc(Cl)cc4Cl)O3)cc2)CC1 (configuration not stated) [Ketoconazole]
Conditions	LDH release cytotoxicity [%]
0.03162 µM	-3.06 ± 0.81
0.1 µM	-3.11 ± 0.33
0.3162278 µM	-2.22 ± 0.27
1 µM	-2.59 ± 0.32
3.16228 µM	-2.26 ± 0.88
10 µM	2.6 ± 2.2
31.6228 µM	1.63 ± 0.66
100 µM	80.8 ± 7.1

Cc1cccc2ccccc12 [1-Methylnaphthalene]
Conditions	LDH release cytotoxicity [%]
0.031623 µM	-2.15 ± 0.06
0.1 µM	-2.7 ± 0.83
0.316228 µM	-2.77 ± 1.2
1 µM	-3.13 ± 0.52
3.16228 µM	-2.9 ± 0.43
10 µM	-2.97 ± 0.64
31.6228 µM	-1.66 ± 0.63
100 µM	13.3 ± 7.7

Cn1cnc2c1c(=O)[nH]c(=O)n2C [Theobromine]
Conditions	LDH release cytotoxicity [%]
0.0132816 µM	0.266 ± 2.6
0.042 µM	0.527 ± 1.8
0.132816 µM	0.244 ± 1.1
0.42 µM	-0.545 ± 0.65
1.3281566 µM	0.0875 ± 0.46
4.2 µM	-0.226 ± 0.1
13.281566 µM	-0.215 ± 0.61
42 µM	0.896 ± 0.38

CNC(=O)C1OC(n2cnc3c(NCc4cc(Cl)ccc4OCc4cc(C)no4)ncnc32)C(O)C1N (configuration not stated)
Conditions	LDH release cytotoxicity [%]
0.03162 µM	-1.47 ± 0.23
0.1 µM	-1.47 ± 1.1
0.3162278 µM	-1.92 ± 0.35
1 µM	-1.97 ± 0.043
3.16228 µM	-1.57 ± 0.1
10 µM	-1.54 ± 0.46
31.6228 µM	-0.977 ± 0.33
100 µM	0.0796 ± 0.85
